{"source": "the supplement of paper PMC10307832", "experiment_in_all_cases": "relative viability (nuclei count vs DMSO), 5 days (fraction); higher = more cells survive", "key": {"[1]": {"compound": "CN(C)C[C@@H]1CCn2cc(c3ccccc32)C2=C(C(=O)NC2=O)c2cn(c3ccccc23)CCO1 [Ruboxistaurin] + C[C@]1(O)C[C@@H](c2nc(-c3ccc4ccc(-c5ccccc5)nc4c3)c3c(N)nccn32)C1 [Linsitinib] (partner 1 µM)", "outline": "(§1)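 After 5 days of treatment, lung cancer cells in 1536-well plates were fixed and stained in a single step (final 0.05% Triton X-100, 1% formaldehyde, 1 ug/ml Hoechst) and their nuclei counted on 4× images. Treatment had been applied by pin tool the day after seeding as one drug alone or as a fixed anchor-drug dose with five library-drug doses (not always all listed) in √10 steps. Relative viability is the nuclei count of treated wells divided by that of vehicle wells, and values are medians of duplicate plates.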"}, "[2]": {"compound": "CN(C)C[C@@H]1CCn2cc(c3ccccc32)C2=C(C(=O)NC2=O)c2cn(c3ccccc23)CCO1 [Ruboxistaurin] + C[C@@H](Oc1cc(-c2cnn(C3CCNCC3)c2)cnc1N)c1c(Cl)ccc(F)c1Cl [Crizotinib] (partner 1 µM)", "outline": "as §1"}, "Ruboxistaurin + AZD7762": {"compound": "CN(C)C[C@@H]1CCn2cc(c3ccccc32)C2=C(C(=O)NC2=O)c2cn(c3ccccc23)CCO1 [Ruboxistaurin] + NC(=O)Nc1cc(-c2cccc(F)c2)sc1C(=O)N[C@H]1CCCNC1 [AZD7762] (partner 0.2 µM)", "outline": "as §1"}, "[3]": {"compound": "CN(C)C[C@@H]1CCn2cc(c3ccccc32)C2=C(C(=O)NC2=O)c2cn(c3ccccc23)CCO1 [Ruboxistaurin] + CS(=O)(=O)N1CCN(Cc2cc3nc(-c4cccc5[nH]ncc45)nc(N4CCOCC4)c3s2)CC1 [Pictilisib] (partner 1 µM)", "outline": "as §1"}, "[4]": {"compound": "CN(C)C[C@@H]1CCn2cc(c3ccccc32)C2=C(C(=O)NC2=O)c2cn(c3ccccc23)CCO1 [Ruboxistaurin] + CC1(C)CCC(c2ccc(Cl)cc2)=C(CN2CCN(c3ccc(C(=O)NS(=O)(=O)c4ccc(N[C@H](CCN5CCOCC5)CSc5ccccc5)c(S(=O)(=O)C(F)(F)F)c4)cc3)CC2)C1 [Navitoclax] (partner 0.5 µM)", "outline": "as §1"}, "[5]": {"compound": "CN(C)C[C@@H]1CCn2cc(c3ccccc32)C2=C(C(=O)NC2=O)c2cn(c3ccccc23)CCO1 [Ruboxistaurin] + COc1cc2c(Oc3ccc(NC(=O)C4(C(=O)Nc5ccc(F)cc5)CC4)cc3F)ccnc2cc1OCCCN1CCOCC1 [Foretinib] (partner 0.25 µM)", "outline": "as §1"}, "[6]": {"compound": "CN(C)C[C@@H]1CCn2cc(c3ccccc32)C2=C(C(=O)NC2=O)c2cn(c3ccccc23)CCO1 [Ruboxistaurin] + CS(=O)(=O)CCNCc1ccc(-c2ccc3ncnc(Nc4ccc(OCc5cccc(F)c5)c(Cl)c4)c3c2)o1 [Lapatinib] (partner 2 µM)", "outline": "as §1"}, "Ruboxistaurin + Olaparib": {"compound": "CN(C)C[C@@H]1CCn2cc(c3ccccc32)C2=C(C(=O)NC2=O)c2cn(c3ccccc23)CCO1 [Ruboxistaurin] + O=C(c1cc(Cc2n[nH]c(=O)c3ccccc23)ccc1F)N1CCN(C(=O)C2CC2)CC1 [Olaparib] (partner 8 µM)", "outline": "as §1"}, "[7]": {"compound": "CN(C)C[C@@H]1CCn2cc(c3ccccc32)C2=C(C(=O)NC2=O)c2cn(c3ccccc23)CCO1 [Ruboxistaurin] + CC(C)C[C@H](NC(=O)[C@H](Cc1ccccc1)NC(=O)c1cnccn1)B(O)O [Bortezomib] (partner 0.002 µM)", "outline": "as §1"}, "[8]": {"compound": "CN(C)C[C@@H]1CCn2cc(c3ccccc32)C2=C(C(=O)NC2=O)c2cn(c3ccccc23)CCO1 [Ruboxistaurin] + Cc1nc(NC(=O)N2CCC[C@H]2C(N)=O)sc1-c1ccnc(C(C)(C)C(F)(F)F)c1 [Alpelisib] (partner 2 µM)", "outline": "as §1"}, "Ruboxistaurin": {"compound": "CN(C)C[C@@H]1CCn2cc(c3ccccc32)C2=C(C(=O)NC2=O)c2cn(c3ccccc23)CCO1 [Ruboxistaurin]", "outline": "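In 1536-well plates, lung cancer cell lines rested overnight at 37 °C before five library-drug doses (not always all listed), √10 apart, were pinned onto vehicle-anchored plates. Nuclei were counted with MetaXpress from 4× Hoechst images taken after 5 days without medium change. Viability compares treated-well with vehicle-well nuclei as a median over plates, and plates needed control CV below 25% plus at least one doubling to pass.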"}}, "data": [{"cell line": "NCI-H1703", "values": [{"measurement": "relative viability", "setting": "[1]; first compound 0.08 µM", "value": 0.756}, {"measurement": "relative viability", "setting": "[1]; first compound 0.8 µM", "value": 0.464}, {"measurement": "relative viability", "setting": "[1]; first compound 2.53 µM", "value": 0.957}, {"measurement": "relative viability", "setting": "[1]; first compound 8 µM", "value": 0.82}, {"measurement": "relative viability", "setting": "[2]; first compound 0.08 µM", "value": 0.662}, {"measurement": "relative viability", "setting": "[2]; first compound 0.8 µM", "value": 0.574}, {"measurement": "relative viability", "setting": "[2]; first compound 2.53 µM", "value": 0.582}, {"measurement": "relative viability", "setting": "[2]; first compound 8 µM", "value": 0.322}, {"measurement": "relative viability", "setting": "Ruboxistaurin + AZD7762; first compound 0.08 µM", "value": 0.111}, {"measurement": "relative viability", "setting": "Ruboxistaurin + AZD7762; first compound 0.8 µM", "value": 0.115}, {"measurement": "relative viability", "setting": "Ruboxistaurin + AZD7762; first compound 2.53 µM", "value": 0.122}, {"measurement": "relative viability", "setting": "Ruboxistaurin + AZD7762; first compound 8 µM", "value": 0.119}, {"measurement": "relative viability", "setting": "[3]; first compound 0.08 µM", "value": 0.198}, {"measurement": "relative viability", "setting": "[3]; first compound 2.53 µM", "value": 0.277}, {"measurement": "relative viability", "setting": "[3]; first compound 8 µM", "value": 0.23}, {"measurement": "relative viability", "setting": "[4]; first compound 0.08 µM", "value": 1.14}, {"measurement": "relative viability", "setting": "[4]; first compound 0.8 µM", "value": 0.992}, {"measurement": "relative viability", "setting": "[4]; first compound 2.53 µM", "value": 0.991}, {"measurement": "relative viability", "setting": "[4]; first compound 8 µM", "value": 0.525}, {"measurement": "relative viability", "setting": "[5]; first compound 0.08 µM", "value": 0.367}, {"measurement": "relative viability", "setting": "[5]; first compound 2.53 µM", "value": 0.408}, {"measurement": "relative viability", "setting": "[5]; first compound 8 µM", "value": 0.327}, {"measurement": "relative viability", "setting": "[6]; first compound 0.08 µM", "value": 1.08}, {"measurement": "relative viability", "setting": "[6]; first compound 0.8 µM", "value": 1.06}, {"measurement": "relative viability", "setting": "[6]; first compound 2.53 µM", "value": 1.09}, {"measurement": "relative viability", "setting": "[6]; first compound 8 µM", "value": 0.678}, {"measurement": "relative viability", "setting": "Ruboxistaurin + Olaparib; first compound 0.08 µM", "value": 0.447}, {"measurement": "relative viability", "setting": "Ruboxistaurin + Olaparib; first compound 0.8 µM", "value": 0.411}, {"measurement": "relative viability", "setting": "Ruboxistaurin + Olaparib; first compound 2.53 µM", "value": 0.622}, {"measurement": "relative viability", "setting": "Ruboxistaurin + Olaparib; first compound 8 µM", "value": 0.305}, {"measurement": "relative viability", "setting": "[7]; first compound 0.08 µM", "value": 0.401}, {"measurement": "relative viability", "setting": "[7]; first compound 0.8 µM", "value": 0.319}, {"measurement": "relative viability", "setting": "[7]; first compound 2.53 µM", "value": 0.382}, {"measurement": "relative viability", "setting": "[7]; first compound 8 µM", "value": 0.237}, {"measurement": "relative viability", "setting": "[8]; first compound 0.08 µM", "value": 0.356}, {"measurement": "relative viability", "setting": "[8]; first compound 0.8 µM", "value": 0.323}, {"measurement": "relative viability", "setting": "[8]; first compound 2.53 µM", "value": 0.366}, {"measurement": "relative viability", "setting": "[8]; first compound 8 µM", "value": 0.308}, {"measurement": "relative viability", "setting": "Ruboxistaurin; 0.08 µM", "value": 1.19}, {"measurement": "relative viability", "setting": "Ruboxistaurin; 0.8 µM", "value": 0.697}, {"measurement": "relative viability", "setting": "Ruboxistaurin; 2.53 µM", "value": 0.876}, {"measurement": "relative viability", "setting": "Ruboxistaurin; 8 µM", "value": 0.724}]}]}
